According to ChEMBL document CHEMBL1201862, “PubChem BioAssay data set” (2004):
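Dose response: 5 concentrations. Exposure: 48 h. Format: 96-well plates. Endpoint: linear interpolation; highest concentration if not reached. GI50 marks 50% less growth.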 The source made the active and inactive calls. No stated cut-off is given here; in the data, active = GI50 up to about 1.1 µM and inactive = higher.

Assays:
Test in all cases: DTP human tumour cell line panel, 48 h
LOX IMVI = tested on: LOX IMVI
A549 = tested on: A549
RXF 393 = tested on: RXF 393
EKVX = tested on: EKVX
SNB-75 = tested on: SNB-75
HOP-62 = tested on: HOP-62
UACC-257 = tested on: UACC-257
SF-295 = tested on: SF-295
SF-539 = tested on: SF-539
NCI-H460 = tested on: NCI-H460
SN12C = tested on: SN12C
786-0 = tested on: 786-0
UACC-62 = tested on: UACC-62
IGROV-1 = tested on: IGROV-1
NCI-H226 = tested on: NCI-H226
OVCAR-5 = tested on: OVCAR-5
PC-3 = tested on: PC-3
T47D = tested on: T47D
BT-549 = tested on: BT-549
SF-268 = tested on: SF-268
MCF7 = tested on: MCF7
CAKI-1 = tested on: CAKI-1
Malme-3M = tested on: Malme-3M
A498 = tested on: A498
MDA-N = tested on: MDA-N
HCC 2998 = tested on: HCC 2998
NCI-H23 = tested on: NCI-H23
SR = tested on: SR
OVCAR-8 = tested on: OVCAR-8
RPMI-8226 = tested on: RPMI-8226
HL-60 = tested on: HL-60
NCI/ADR-RES = tested on: NCI/ADR-RES
HCT-15 = tested on: HCT-15
OVCAR-3 = tested on: OVCAR-3
M14 = tested on: M14
SNB-19 = tested on: SNB-19
DU-145 = tested on: DU-145
ACHN = tested on: ACHN
SK-MEL-5 = tested on: SK-MEL-5
HCT-116 = tested on: HCT-116
SW-620 = tested on: SW-620
UO-31 = tested on: UO-31
KM12 = tested on: KM12
COLO 205 = tested on: COLO 205
CCRF-CEM = tested on: CCRF-CEM
HT-29 = tested on: HT-29
MDA-MB-435 = tested on: MDA-MB-435
TK-10 = tested on: TK-10
K562 = tested on: K562
Hs-578T = tested on: Hs-578T
MOLT-4 = tested on: MOLT-4
U-251 = tested on: U-251
NCI-H522 = tested on: NCI-H522
SK-MEL-28 = tested on: SK-MEL-28
SK-MEL-2 = tested on: SK-MEL-2
OVCAR-4 = tested on: OVCAR-4
MDA-MB-231 = tested on: MDA-MB-231
HOP-92 = tested on: HOP-92

`CC(=O)Nc1ccccc1C=C1c2ccccc2-c2ccccc21` was tested, and the GI50 (LOX IMVI) was > 100 µM (inactive), the GI50 (A549) was 24.1 µM (inactive) and the GI50 (RXF 393) was 20.8 µM (inactive). The GI50 (EKVX) was 38.8 µM (inactive), the GI50 (SNB-75) was 17.9 µM (inactive) and the GI50 (HOP-62) was 19.5 µM (inactive). For the same molecule, the GI50 (UACC-257) was 56.8 µM (inactive), the GI50 (SF-295) was 20.9 µM (inactive) and the GI50 (SF-539) was 13.2 µM (inactive). For the same molecule, the GI50 (NCI-H460) was 34.7 µM (inactive), the GI50 (SN12C) was 19.1 µM (inactive) and the GI50 (786-0) was 19.9 µM (inactive). For the same molecule, the GI50 (UACC-62) was 41.7 µM (inactive), the GI50 (IGROV-1) was 33 µM (inactive) and the GI50 (NCI-H226) was 28 µM (inactive). The GI50 (OVCAR-5) was 35.9 µM (inactive), the GI50 (PC-3) was 41.8 µM (inactive) and the GI50 (T47D) was 30.4 µM (inactive). For the same molecule, the GI50 (BT-549) was 24.8 µM (inactive), the GI50 (SF-268) was > 100 µM (inactive) and the GI50 (MCF7) was 20.9 µM (inactive). The GI50 (CAKI-1) was 63 µM (inactive), the GI50 (Malme-3M) was > 100 µM (inactive) and the GI50 (A498) was 36.3 µM (inactive). For the same molecule, the GI50 (MDA-N) was > 100 µM (inactive), the GI50 (HCC 2998) was 84.9 µM (inactive) and the GI50 (NCI-H23) was 25.2 µM (inactive). For the same molecule, the GI50 (SR) was 98.9 µM (inactive), the GI50 (OVCAR-8) was 21.7 µM (inactive) and the GI50 (RPMI-8226) was 50.2 µM (inactive). For the same molecule, the GI50 (HL-60) was > 100 µM (inactive), the GI50 (NCI/ADR-RES) was 18.7 µM (inactive) and the GI50 (HCT-15) was 45.8 µM. The GI50 (OVCAR-3) was 25.1 µM (inactive), the GI50 (M14) was 36.7 µM (inactive) and the GI50 (SNB-19) was 17.8 µM (inactive). The GI50 (DU-145) was 33.2 µM (inactive), the GI50 (ACHN) was 42.7 µM (inactive) and the GI50 (SK-MEL-5) was 57.3 µM (inactive). For the same molecule, the GI50 (HCT-116) was 29.7 µM (inactive), the GI50 (SW-620) was > 100 µM (inactive) and the GI50 (UO-31) was 16.2 µM (inactive). The GI50 (KM12) was > 100 µM (inactive), the GI50 (COLO 205) was 78.2 µM (inactive) and the GI50 (CCRF-CEM) was 48 µM (inactive). For the same molecule, the GI50 (HT-29) was > 100 µM (inactive), the GI50 (MDA-MB-435) was > 100 µM (inactive) and the GI50 (TK-10) was 31.3 µM (inactive). For the same molecule, the GI50 (K562) was 51.9 µM (inactive), the GI50 (Hs-578T) was > 100 µM (inactive) and the GI50 (MOLT-4) was 77.1 µM (inactive). The GI50 (U-251) was 23.2 µM (inactive), the GI50 (NCI-H522) was 20.2 µM (inactive) and the GI50 (SK-MEL-28) was > 100 µM (inactive). For the same molecule, the GI50 (SK-MEL-2) was 34 µM (inactive), the GI50 (OVCAR-4) was 27.9 µM (inactive) and the GI50 (MDA-MB-231) was 17.7 µM (inactive).
`COc1ccc(-c2nc3c(C(=O)NCCN(C)C)cccc3c3ccccc23)cc1` was tested, and the GI50 (LOX IMVI) was 1.5 µM (inactive), the GI50 (A549) was 3.1 µM (inactive) and the GI50 (EKVX) was 6.78 µM (inactive). For the same molecule, the GI50 (SNB-75) was 5.13 µM (inactive), the GI50 (HOP-62) was 3.06 µM (inactive) and the GI50 (UACC-257) was 1.89 µM (inactive). For the same molecule, the GI50 (SF-295) was 2.18 µM (inactive), the GI50 (SF-539) was 2.21 µM (inactive) and the GI50 (HOP-92) was 3.51 µM (inactive). For the same molecule, the GI50 (NCI-H460) was 2.45 µM (inactive), the GI50 (SN12C) was 4.2 µM (inactive) and the GI50 (786-0) was 2.49 µM (inactive). For the same molecule, the GI50 (UACC-62) was 1.83 µM (inactive), the GI50 (IGROV-1) was 3.47 µM (inactive) and the GI50 (NCI-H226) was 5.57 µM (inactive). The GI50 (OVCAR-5) was 3.95 µM (inactive), the GI50 (PC-3) was 3.73 µM (inactive) and the GI50 (T47D) was 8.99 µM (inactive). The GI50 (BT-549) was 10.5 µM (inactive), the GI50 (SF-268) was 8.53 µM (inactive) and the GI50 (MCF7) was 2.46 µM (inactive). For the same molecule, the GI50 (CAKI-1) was 1.71 µM (inactive), the GI50 (Malme-3M) was 4.3 µM (inactive) and the GI50 (A498) was 2.98 µM (inactive). The GI50 (MDA-N) was 2.26 µM (inactive), the GI50 (HCC 2998) was 1.95 µM (inactive) and the GI50 (NCI-H23) was 6.07 µM (inactive). The GI50 (SR) was 2.43 µM (inactive), the GI50 (OVCAR-8) was 4.4 µM (inactive) and the GI50 (HL-60) was 2.07 µM (inactive). For the same molecule, the GI50 (NCI/ADR-RES) was 7.31 µM (inactive), the GI50 (HCT-15) was 2.92 µM and the GI50 (OVCAR-3) was 4.57 µM (inactive). The GI50 (M14) was 1.98 µM (inactive), the GI50 (SNB-19) was 3.42 µM (inactive) and the GI50 (DU-145) was 4.65 µM (inactive). The GI50 (ACHN) was 3.25 µM (inactive), the GI50 (SK-MEL-5) was 1.74 µM (inactive) and the GI50 (HCT-116) was 3.46 µM (inactive). The GI50 (SW-620) was 3.62 µM (inactive), the GI50 (UO-31) was 1.16 µM (inactive) and the GI50 (KM12) was 3.58 µM (inactive). For the same molecule, the GI50 (COLO 205) was 1.99 µM (inactive), the GI50 (CCRF-CEM) was 2.77 µM (inactive) and the GI50 (HT-29) was 2.51 µM (inactive). For the same molecule, the GI50 (MDA-MB-435) was 2.2 µM (inactive), the GI50 (TK-10) was 7.67 µM (inactive) and the GI50 (K562) was 2.06 µM (inactive). For the same molecule, the GI50 (Hs-578T) was 5.3 µM (inactive), the GI50 (MOLT-4) was 2.07 µM (inactive) and the GI50 (U-251) was 2.86 µM (inactive). The GI50 (NCI-H522) was 2.65 µM (inactive), the GI50 (SK-MEL-28) was 1.97 µM (inactive) and the GI50 (SK-MEL-2) was 5.21 µM (inactive). The GI50 (OVCAR-4) was 2.81 µM (inactive) and the GI50 (MDA-MB-231) was 3.45 µM (inactive).
